Test results from US6600012B1, “Lipid-modified muc-1 derivatives” (Biomira, Inc., priority 1997, dated 2003).

Experiments:
[1] = target: T1, HLA.A2 on T2 mutant cells (Homo sapiens, UniProt P04439, D140Y/D185E/D98H/E176V/E277Q/G131W/G231S/I119V/I121R/I166T/I218V/L300P/L318F/N151K/N90K/P208A/P217A/Q86G/Q94H/R138H/R169H/T345S); assay: T2 feeding experiment and FACS analysis (HLA.A2 upregulation, MA2.1 staining), Example 2; assay type: cell-based
[2] = test system: T2 cells loaded with MUC-1 synthetic peptides; assay: Cytotoxic T lymphocyte assay (51Cr release) against peptide loaded T2 targets, Example 2; assay type: cell-based, human; settings: T-cells of three HLA.A2+ donors primed with liposomal 25 aa MUC-1 lipopeptide, 5 h 51Cr release, peptide 200 μM
Experimental: Cytotoxic T lymphocyte assays. For the CTL assay, three (HLA.A2^+) normal donors' PBLs were used. The T-cells were grown for two weeks in bulk cultures as described above. At the end of two weeks, live T-cells were harvested from flasks and counted. T2 cells used as CTL targets were loaded overnight with various MUC-1 synthetic peptides at 200 μM in presence of exogenous β2m. Houbiers et al., Eur. J. Immunol 23:2072-2077 (1993); Stauss et al., Proc. Natl. Acad. Sci. U.S.A. 89:7871-7875 (1992). These peptide loaded T2 target cells were then loaded with ^51Cr (using NaCrO4) for 90 min and washed extensively. CTL assays were performed as previously described. Agrawal et al., supra. Percent specific killing was calculated as: experimental release—spontaneous release/maximum release—spontaneous release×100. The effector versus target ratio was used as (1, 10, 50, 100 and 150). Each group was set up in four replicate and mean percent specific killing was calculated. As negative control OVA peptide […] loaded target T2 cells were used in the cytotoxic assay and percent specific killing of […] loaded targets was subtracted from each data point to obtain MUC-1 peptide specific percent specific killing.
We performed in vitro CTL assays in order to determine whether the MUC-1 peptides shown to be capable of binding to HLA.A2 on T2 mutant cells can be recognized as CTL epitopes in the context of MHC class I HLA.A2 molecules on target cells. T-cells from PBLs of three HLA.A2^+ donors were primed in vitro against MUC-1 antigen using a lipopeptide derivative of 25 amino acid MUC-1 peptide encapsulated in liposome pulsed autologous PBLs as APCs. The stimulated T-cells were harvested following two weeks in vitro culture (with 2 weekly restimulations) and tested for their cytotoxic activity against MUC-1 derived synthetic peptide (9 mers and 7 mer) loaded T2 cells as target in a 5 h ^51Cr release assay (FIG. 6). […] The targets loaded with 7 mer TSA . . . peptide were weakly killed by donor 2 at higher E/T ratios.

MAb BCP8 = assay: Competitive inhibition of binding of MAb BCP8 to class I MHC isolated MUC-1 peptides (ELISA); settings: synthetic peptide 0-10 μM; MCF-7 derived fraction (FIG. 9)
Experimental: Competitive inhibition of binding of MAb BCP8 to class I MHC isolated putative MUC-1 peptide motifs by synthetic MUC-1 peptides. To show the specificity of binding of the BCP8 antibody to the peptides isolated from MCF-7, a fraction eluting at 19 min after secondary HPLC was diluted ⅙ with PBS and coated on microtiter wells overnight, then blocked as described above. The wells were incubated with 2 ng of BCP8 in 100 μl ELISA diluent, containing also amounts of peptide varying from 0-10 μM. Peptides used in this experiment were the 9 mers (SEQ ID NO: 3), […] and […] (SEQ ID NO: 17), and the 16 mer (SEQ ID NO: 15) […]. The ELISA was then processed as described above.

[3] = target: T1, HLA.A2 on T2 mutant cells; assay: MUC-1 peptide-mediated upregulation of HLA.A2 expression on T2 cells, Example 1; assay type: cell-based; settings: FIG. 6A
From the text: FIG. 6A: Upregulation of HLA.A2 expression on T2 mutant cells by MUC-1 peptides […] (SEQ ID NO: 1) and […] (SEQ ID NO: 2). […] was used as a positive control (SEQ ID NO: 1) and H-2Kb (61-69) peptide (SEQ ID NO: 3) was used as negative control for HLA-A2 upregulation. The x-axis represents fluorescence intensity and the y-axis represents the cell number. Markers M1 and M2 were set to visually examine the increase expression of HLA.A2. Mean channel intensity (MCI) is shown in each histogram.
Cytotoxic T lymphocyte assays. For the CTL assay, three (HLA.A2^+) normal donors' PBLs were used. The T-cells were grown for two weeks in bulk cultures as described above. At the end of two weeks, live T-cells were harvested from flasks and counted. The targets were mutant T2 cells. Houbiers et al., Eur. J. Immunol 23:2072-2077 (1993); Stauss et al., Proc. Natl. Acad. Sci. U.S.A. 89:7871-7875 (1992). The MUC-1 peptide-mediated upregulation of HLA.A2 expression on T2 cells was examined using the MUC-1 nine-mer peptides (SEQ ID NO: 25) […] and […] using known methods. Townsend et al., Nature 346:476 (1989). […] Percent specific killing was calculated as: experimental release—spontaneous release/maximum release—spontaneous release×100. […] Each group was set up in four replicate and mean percent specific killing was calculated.

[4] = test system: T-cells from PBLs of normal donors; assay: T-cell proliferation assay (3H-Tdr incorporation) of T-cells stimulated twice with liposomal antigen loaded autologous APCs; assay type: cell-based, human; settings: T-cells stimulated twice in two weeks with BLP-25 liposome loaded autologous PBLs; antigen presented on autologous APCs
Experimental: T-cell Culture in Bulk For T-cell enrichment, 30-50×10^6 PBLs were suspended in 1 mL AIM-V media and loaded on media pre-conditioned 5 mL nylon wool columns (Robins Scientific, Sunnyvale, Calif.). The loaded nylon wool columns were incubated at 37° C. for 45 minutes and then the non-adhering T-cells were eluted by washing with warm (37° C.) AIM-V media. Initially, the bulk culture was started in a 25 cm^2 tissue culture sterile flask (Corning Glass, Corning, N.Y.). 10^7 T-cells were cultured in the presence of 10^7 antigen loaded, gamma-irradiated autologous PBLs in a total volume of 10 mL in AIM-V media for 16-24 hours, at which time the culture was fed with human rIL-7 (10 μg/mL) and human rIL-12 (100 pg/ml), and left for 6-8 more days. At the end of the 7-10 days of culture, surviving t-cells were collected and re-stimulated with autologous APCs loaded with liposomal antigen. After two consecutive cycles of re-stimulation (14-16 days), the T-cells were collected, and counted. The supernatant was collected from bulk cultures at 14 days for cytokine screening and kept frozen at −80° C. until used for the assay. Repeated freeze/thaw was prevented. […] Incorporation of ^3H-Tdr into DNA of proliferating cells was measured after harvesting the plates and counting in the matrix beta counter. […]

[5] = test system: T cells stimulated with autologous PBLs loaded with liposomes containing BLP-25; assay: Cytokine ELISA of supernatant of microtiter wells in the proliferation assay; assay type: cell-based, human; settings: soluble peptide, 100 ug; T cells pre-stimulated with BLP-25 liposomes 100 ug; 6th day of culture
Experimental: T-Cell Proliferation Assay T-cells (5×10^4-1×10^5) obtained at the end of 14-16 days of culture, as described above, were incubated in the presence of various antigen-containing liposomes, soluble BP24, soluble BLP-24M, loaded or unloaded autologous liposomes, and mitomycin C treated APCs (5×10^4-10^5), in a total volume of 200 μL in AIM-V medium, in 96-well flat-bottom tissue culture plates—for a period of 5 days at 37° C., 7% CO2 and moisture. Each group was cultured in 5 replicate wells. At the end of 5 days, 100 μL of culture supernatant was collected from each well and tested for the presence of γ-IFN or IL-4 by ELISA, as described below. After collecting the supernatant for cytokines, 1 μCi^3H-Tdr (Amersham Canada Limited, Oaksville, Ontario) was added into each well and incubated overnight. Incorporation of ^3H-Tdr into DNA of proliferating cells was measured after harvesting the plates and counting in the matrix beta counter. […]
For the γ-IFN assay, 96-well Nunc ELISA plates were coated overnight at 4° C. with mouse anti-human γ-IFN monoclonal antibody (Genzyme, Cambridge, Mass.) in NaHCO3 buffer (0.1 M, pH 9.5). […] At this time, the plates were read in the ELISA reader (Molecular Devices Corporation, Menlo Park, Calif.) in kinetic mode [Molecular Thermomax dual wavelength (405-490 nm)]. […]

TSAPDTR [MUC-1 7 mer, class I-associated peptide]
δMCI, HLA.A2 expression on T2 cell surface ([1]; peptide in excess at 50 μM/well): 2
specific killing of T2 targets loaded with the peptide [2]: weakly killed

SAPDTRPAP [MUC-1 tandem repeat 9 mer]
% Change in mean channel intensity ([1]; T2 cell assay, HLA.A2 expression (MA2.1 staining)): 48%
specific killing of T2 targets loaded with the peptide [2]: specifically killed to the highest degree

GVTSAPDTR [MUC-1 tandem repeat 9 mer]
inhibition of binding of BCP8 to the isolated MUC-1 peptides (MAb BCP8): did not inhibit binding

SIINFEKL [8-mer ovalbumin (OVA) peptide, negative control in CTL assay, reference compound]
upregulation of HLA.A2 expression on T2 cells [3]: strongly upregulates HLA.A2 expression

DSTSSPVHSGTSSPATSAPEDSTS [BP-24M, mouse MUC-1, 24-amino acid peptide, control]
T-cell proliferative response against the test antigen [4]: no proliferative T-cell response
IFN-γ (pg/ml) ± S.D. [5]: 193 ± 79 pg/mL
IL-4 (pg/ml) ± S.D. [5]: <31.00 pg/mL

TSAPDTRPA [MUC-1 tandem repeat 9 mer]
upregulation of class I expression on T2 cells ([1]; FIG. 11 and repeat experiments): strong upregulation of class I expression
specific killing of T2 targets loaded with the peptide [2]: performed exceptionally well
specific killing of T2 targets loaded with the peptide ([2]; listed as 9 mers TSA . . .): specifically killed to the highest degree

STAPPAHGV
upregulation of HLA.A2 expression on T2 cells [3]: higher upregulation of HLA.A2 expression on T2 cells than did
